Results from patent publication US10399949B2, “NK1 receptor antagonist” (KISSEI PHARMACEUTICAL CO., LTD., priority 2015, dated 2019).

Target: T1, human NK1 receptor (Homo sapiens, UniProt P25103)
T1 construct: expressed in transfected cells; host or cells: 293T cells (RIKEN), transient transfection with pcDNA3.1(-) plasmid
Experiment: Inhibitory effect on human NK1 receptor (substance P-induced increase in intracellular calcium concentration)
Type: cell-based
Settings: HEK-293T; substance P 0.1 μM; compound 1 μM; human NK1 receptor-expressing 293T cells; vehicle = 100%; read-out: SPRR (%) (Substance P-Response Remaining, intracellular calcium concentration)
Description: Inhibitory Effect on Human NK1 Receptor
(1) Preparation of Human NK1 Receptor-Expressing Cells
Human NK1 receptor-expressing cells were prepared by the same methods as those described in 2-3 and 2-4 of Test Example 1.
(2) Study on Inhibitory Effect on Increase in Intracellular Calcium Concentration
The human NK1 receptor-expressing cells were washed with 300 μL/well of a washing solution (20 mM HEPES/Hanks Balanced Salt Solution (HBSS) pH7.3). A fluorescent calcium indicator (Fluo-4 Direct Calcium Assay Kit, Life Technologies, containing 0.42 mM probenecid and 0.1% bovine serum albumin, prepared according to the protocol of the product) was added to the wells at 150 μL/well, and the plate was incubated at 37° C. for 30 minutes in an incubator. Then, DMSO solutions of a test compound, which were prepared at an 80-time higher concentration using 100% dimethyl sulfoxide (DMSO), were added to the wells at 2.5 μL/well (final concentrations of 0.1, 1 and 10 μM), and the solutions were mixed. Then, the plate was further incubated at 37° C. for 30 minutes in an incubator. After 30 minutes, the intracellular calcium concentrations were measured immediately.
The intracellular calcium concentrations were each measured as a fluorescent signal using FDSS® 7000 (Hamamatsu Photonics). A substance P (Peptide Institute, Inc.) solution which was prepared at 0.4 μM or 4 μM using an assay buffer (20 mM HEPES/Hanks Balanced Salt Solution (HBSS) pH 7.3 containing 0.1% bovine serum albumin) was added automatically to each well at 50 μL/well (final concentration of 0.1 or 1 μM) 10 seconds after starting reading, and the fluorescent signal was measured up to 120 seconds.
The intracellular calcium concentration (%) of the cells to which a test compound was added was calculated by the equation below, where the fluorescent signal of the group to which the vehicle (DMSO) was added was regarded as 100%, and the fluorescent signal before the addition of substance P was regarded as 0%. Intracellular calcium concentration (%)=(Fluorescent signal of test compound addition group)/(Fluorescent signal of vehicle addition group)×100
The intracellular calcium concentration (%) calculated was regarded as the remaining agonist activity of substance P (Substance P-Response Remaining: SPRR). In the table, Ex. No. means the Example number. SPRR (%) means the value obtained when the concentration of substance P was 0.1 μM and the concentration of the compound was 1 μM.

T1 sequence (P25103 whole entry): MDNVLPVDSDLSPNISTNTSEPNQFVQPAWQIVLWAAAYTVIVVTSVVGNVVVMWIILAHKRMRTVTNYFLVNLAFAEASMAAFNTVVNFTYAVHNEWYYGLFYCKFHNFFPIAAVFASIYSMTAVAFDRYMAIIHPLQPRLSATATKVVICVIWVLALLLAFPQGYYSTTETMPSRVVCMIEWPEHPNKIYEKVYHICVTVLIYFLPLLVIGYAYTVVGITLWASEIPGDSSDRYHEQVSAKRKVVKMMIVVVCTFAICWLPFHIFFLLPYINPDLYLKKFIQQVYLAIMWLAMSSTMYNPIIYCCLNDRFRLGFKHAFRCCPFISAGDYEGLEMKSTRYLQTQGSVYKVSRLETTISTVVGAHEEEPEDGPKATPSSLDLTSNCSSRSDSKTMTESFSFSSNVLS

Row | Structure (SMILES) | remaining activity at 1 µM [%]
1 | Cc1cc(F)ccc1[C@H]1CN(C[C@H]2CC[C@H](CC(=O)O)CC2)CCN1C(=O)N(C)[C@H](C)c1cc(C(F)(F)F)cc(C(F)(F)F)c1 [Example 5, trans-{4-[(S)-4-{[(R)-1-(3,5-Bistrifluoromethylphenyl)ethyl]methylcarbamoyl}-3-(4-fluoro-2-methylphenyl)piperazin-1-ylmethyl]cyclohexyl}acetic acid] | 8.9
2 | Cc1cc(F)ccc1[C@H]1CN(C[C@H]2CC[C@@H](CC(=O)O)CC2)CCN1C(=O)N(C)[C@H](C)c1cc(C(F)(F)F)cc(C(F)(F)F)c1 [Example 4, cis-{4-[(S)-4-{[(R)-1-(3,5-Bistrifluoromethylphenyl)ethyl]methylcarbamoyl}-3-(4-fluoro-2-methylphenyl)piperazin-1-ylmethyl]cyclohexyl}acetic acid] | 2.1
